# From US10093646B2, “1-pyridazin-/triazin-3-yl-piper(-azine)/idine/pyrolidine derivatives and compositions thereof for inhibiting the activity of SHP2” (Novartis AG, priority 2014, dated 2018)
# Biological target: SHP2 (Homo sapiens (Human), UniProt Q06124)
# Assay: SHP2 Allosteric Inhibition Assay (DiFMUP prompt fluorescence)
# Format: biochemical
# Details: 0.5 nM SHP2 activated with 0.5 μM peptide IRS1_pY1172(dPEG8)pY1222, substrate DiFMUP
# From the text: SHP2 Allosteric Inhibition Assay
# SHP2 is allosterically activated through binding of bis-tyrosyl-phosphorylated peptides to its Src Homology 2 (SH2) domains.
row,Structure (SMILES),IC50
1,Nc1nc(N2CCC3NCCC3C2)cnc1-c1cccc(Cl)c1Cl (stereo not shown) [Example 10],0.908 µM
2,NCC1(c2ccccc2)CCN(c2cnc(-c3cccc(Cl)c3Cl)c(N)n2)CC1 [Example 12],0.065 µM
3,Nc1nc(N2CC3C(N)C3C2)cnc1-c1cccc(Cl)c1Cl (stereo not shown) [Example 13],0.065 µM
4,CCCC1(CN)CCN(c2cnc(-c3cccc(Cl)c3Cl)c(N)n2)CC1 [Example 15],0.075 µM
5,C[C@]1(N)CCN(c2cnc(-c3cccc(Cl)c3Cl)c(N)n2)C[C@@H]1O [Example 16],0.093 µM

# Results, then the compound that gave them:
row,IC50,Structure (SMILES)
1,0.102 µM,NCC1(c2ccncc2)CCN(c2cnc(-c3cccc(Cl)c3Cl)c(N)n2)CC1 [Example 17]
2,0.093 µM,NCC1(c2cnccn2)CCN(c2cnc(-c3cccc(Cl)c3Cl)c(N)n2)CC1 [Example 18]
3,0.11 µM,NCC1(c2ccccn2)CCN(c2cnc(-c3cccc(Cl)c3Cl)c(N)n2)CC1 [Example 19]
4,0.404 µM,Nc1nc(N2CC3CNCC32)cnc1-c1cccc(Cl)c1Cl (stereo not shown) [Example 20]
5,0.102 µM,Nc1nc(N2CC3CNCC3C2)cnc1-c1cccc(Cl)c1Cl (stereo not shown) [Example 21]
